Patent US11168057B2, “Polymorphs and co-crystals of roxadustat” (DR. REDDY'S LABORATORIES LIMITED, priority 2017, dated 2021)

Assay: Storage stability in three ICH conditions for three months (water content, purity, PXRD)
Format: physicochemical
Conditions: for storage stability: all three ICH conditions for three months
Description: The data presented below substantiate that the Form RLP has a high storage stability. Pack-1 (Normal LDPE Bag with 1 g Silica Gel, Packed in a HDPE Container):
Pack-2 (Black Colored LDPE Bag with 1 g Silica Gel, Packed in a HDPE Container):
The data presented below substantiate that the Form RNM has a high storage stability.
Pack-1 (LDPE Bag with 1 g Molecular Sieve, Packed in a HDPE Container):
Pack-2 (LDPE Bag with 1 g Silica Gel, Packed in a HDPE Container): […]

[1] = Pack-1 (Normal LDPE Bag with 1 g Silica Gel, HDPE Container), 2-8° C., 1st Month
[2] = Pack-1 (Normal LDPE Bag with 1 g Silica Gel, HDPE Container), 2-8° C., 3rd Month
[3] = Pack-1 (Normal LDPE Bag with 1 g Silica Gel, HDPE Container), 2-8° C., Initial
[4] = Pack-1 (Normal LDPE Bag with 1 g Silica Gel, HDPE Container), 25 ± 2° C., 60 ± 5% RH, 1st Month
[5] = Pack-1 (Normal LDPE Bag with 1 g Silica Gel, HDPE Container), 25 ± 2° C., 60 ± 5% RH, 3rd Month
[6] = Pack-1 (Normal LDPE Bag with 1 g Silica Gel, HDPE Container), 25 ± 2° C., 60 ± 5% RH, Initial
[7] = Pack-1 (Normal LDPE Bag with 1 g Silica Gel, HDPE Container), 40 ± 2° C., 75 ± 5% RH, 1st Month
[8] = Pack-1 (Normal LDPE Bag with 1 g Silica Gel, HDPE Container), 40 ± 2° C., 75 ± 5% RH, 3rd Month
[9] = Pack-1 (Normal LDPE Bag with 1 g Silica Gel, HDPE Container), 40 ± 2° C., 75 ± 5% RH, Initial
[10] = Pack-2 (Black Colored LDPE Bag with 1 g Silica Gel, HDPE Container), 2-8° C., 1st Month
[11] = Pack-2 (Black Colored LDPE Bag with 1 g Silica Gel, HDPE Container), 2-8° C., 3rd Month
[12] = Pack-2 (Black Colored LDPE Bag with 1 g Silica Gel, HDPE Container), 2-8° C., Initial
[13] = Pack-2 (Black Colored LDPE Bag with 1 g Silica Gel, HDPE Container), 25 ± 2° C., 60 ± 5% RH, 1st Month
[14] = Pack-2 (Black Colored LDPE Bag with 1 g Silica Gel, HDPE Container), 25 ± 2° C., 60 ± 5% RH, 3rd Month
[15] = Pack-2 (Black Colored LDPE Bag with 1 g Silica Gel, HDPE Container), 25 ± 2° C., 60 ± 5% RH, Initial
[16] = Pack-2 (Black Colored LDPE Bag with 1 g Silica Gel, HDPE Container), 40 ± 2° C., 75 ± 5% RH, 1st Month
[17] = Pack-2 (Black Colored LDPE Bag with 1 g Silica Gel, HDPE Container), 40 ± 2° C., 75 ± 5% RH, 3rd Month
[18] = Pack-2 (Black Colored LDPE Bag with 1 g Silica Gel, HDPE Container), 40 ± 2° C., 75 ± 5% RH, Initial
[19] = Pack-1 (LDPE Bag with 1 g Molecular Sieve, HDPE Container), 2-8° C., 1st Month
[20] = Pack-1 (LDPE Bag with 1 g Molecular Sieve, HDPE Container), 2-8° C., 3rd Month
[21] = Pack-1 (LDPE Bag with 1 g Molecular Sieve, HDPE Container), 2-8° C., Initial
[22] = Pack-1 (LDPE Bag with 1 g Molecular Sieve, HDPE Container), 25 ± 2° C., 60 ± 5% RH, 1st Month
[23] = Pack-1 (LDPE Bag with 1 g Molecular Sieve, HDPE Container), 25 ± 2° C., 60 ± 5% RH, 3rd Month
[24] = Pack-1 (LDPE Bag with 1 g Molecular Sieve, HDPE Container), 25 ± 2° C., 60 ± 5% RH, Initial
[25] = Pack-1 (LDPE Bag with 1 g Molecular Sieve, HDPE Container), 40 ± 2° C., 75 ± 5% RH, 1st Month
[26] = Pack-1 (LDPE Bag with 1 g Molecular Sieve, HDPE Container), 40 ± 2° C., 75 ± 5% RH, 3rd Month
[27] = Pack-1 (LDPE Bag with 1 g Molecular Sieve, HDPE Container), 40 ± 2° C., 75 ± 5% RH, Initial
[28] = Pack-2 (LDPE Bag with 1 g Silica Gel, HDPE Container), 2-8° C., 1st Month
[29] = Pack-2 (LDPE Bag with 1 g Silica Gel, HDPE Container), 2-8° C., 3rd Month
[30] = Pack-2 (LDPE Bag with 1 g Silica Gel, HDPE Container), 2-8° C., Initial
[31] = Pack-2 (LDPE Bag with 1 g Silica Gel, HDPE Container), 25 ± 2° C., 60 ± 5% RH, 1st Month
[32] = Pack-2 (LDPE Bag with 1 g Silica Gel, HDPE Container), 25 ± 2° C., 60 ± 5% RH, 3rd Month
[33] = Pack-2 (LDPE Bag with 1 g Silica Gel, HDPE Container), 25 ± 2° C., 60 ± 5% RH, Initial
[34] = Pack-2 (LDPE Bag with 1 g Silica Gel, HDPE Container), 40 ± 2° C., 75 ± 5% RH, 1st Month
[35] = Pack-2 (LDPE Bag with 1 g Silica Gel, HDPE Container), 40 ± 2° C., 75 ± 5% RH, 3rd Month
[36] = Pack-2 (LDPE Bag with 1 g Silica Gel, HDPE Container), 40 ± 2° C., 75 ± 5% RH, Initial

For `Cc1nc(C(=O)NCC(=O)O)c(O)c2ccc(Oc3ccccc3)cc12.O=C(O)[C@@H]1CCCN1` [Form RLP], the PXRD [1] was “No change”, the Purity [1] was 99.84% and the Water content [1] was 0.11 % w/w. For the same molecule, the PXRD [2] was “No change”, the Purity [2] was 99.85% and the Water content [2] was 0.14 % w/w. The PXRD [3] was “Form RLP”, the Purity [3] was 99.84% and the Water content [3] was 0.09 % w/w. The PXRD [4] was “No change”, the Purity [4] was 99.84% and the Water content [4] was 0.14 % w/w. The PXRD [5] was “No change”, the Purity [5] was 99.86% and the Water content [5] was 0.12 % w/w. The PXRD [6] was “Form RLP”, the Purity [6] was 99.84% and the Water content [6] was 0.09 % w/w. The PXRD [7] was “No change”, the Purity [7] was 99.84% and the Water content [7] was 0.16 % w/w. For the same molecule, the PXRD [8] was “No change”, the Purity [8] was 99.83% and the Water content [8] was 0.21 % w/w. The PXRD [9] was “Form RLP”, the Purity [9] was 99.84% and the Water content [9] was 0.09 % w/w. The PXRD [10] was “No change”, the Purity [10] was 99.82% and the Water content [10] was 0.14 % w/w. For the same molecule, the PXRD [11] was “No change”, the Purity [11] was 99.85% and the Water content [11] was 0.16 % w/w. The PXRD [12] was “Form RLP”, the Purity [12] was 99.84% and the Water content [12] was 0.09 % w/w. The PXRD [13] was “No change”, the Purity [13] was 99.84% and the Water content [13] was 0.11 % w/w. The PXRD [14] was “No change”, the Purity [14] was 99.82% and the Water content [14] was 0.13 % w/w. The PXRD [15] was “Form RLP”, the Purity [15] was 99.84% and the Water content [15] was 0.09 % w/w. The PXRD [16] was “No change”, the Purity [16] was 99.83% and the Water content [16] was 0.14 % w/w. The PXRD [17] was “No change”, the Purity [17] was 99.85% and the Water content [17] was 0.11 % w/w. The PXRD [18] was “Form RLP”, the Purity [18] was 99.84% and the Water content [18] was 0.09 % w/w. For the same molecule, the storage stability was “stable”.

With `Cc1nc(C(=O)NCC(=O)O)c(O)c2ccc(Oc3ccccc3)cc12.NC(=O)c1cccnc1` [Form RNM] the PXRD [19] was “No change”, the Purity [19] was 99.66% and the Water content [19] was 0.08 % w/w. The PXRD [20] was “No change”, the Purity [20] was 99.66% and the Water content [20] was 0.08 % w/w. The PXRD [21] was “Form RNM”, the Purity [21] was 99.57% and the Water content [21] was 0.12 % w/w. The PXRD [22] was “No change”, the Purity [22] was 99.63% and the Water content [22] was 0.07 % w/w. The PXRD [23] was “No change”, the Purity [23] was 99.64% and the Water content [23] was 0.08 % w/w. For the same molecule, the PXRD [24] was “Form RNM”, the Purity [24] was 99.57% and the Water content [24] was 0.12 % w/w. The PXRD [25] was “No change”, the Purity [25] was 99.65% and the Water content [25] was 0.10 % w/w. The PXRD [26] was “No change”, the Purity [26] was 99.62% and the Water content [26] was 0.07 % w/w. For the same molecule, the PXRD [27] was “Form RNM”, the Purity [27] was 99.57% and the Water content [27] was 0.12 % w/w. For the same molecule, the PXRD [28] was “No change”, the Purity [28] was 99.62% and the Water content [28] was 0.10 % w/w. For the same molecule, the PXRD [29] was “No change”, the Purity [29] was 99.65% and the Water content [29] was 0.08 % w/w. For the same molecule, the PXRD [30] was “Form RNM”, the Purity [30] was 99.57% and the Water content [30] was 0.12 % w/w. The PXRD [31] was “No change”, the Purity [31] was 99.65% and the Water content [31] was 0.07 % w/w. For the same molecule, the PXRD [32] was “No change”, the Purity [32] was 99.64% and the Water content [32] was 0.11 % w/w. For the same molecule, the PXRD [33] was “Form RNM”, the Purity [33] was 99.57% and the Water content [33] was 0.12 % w/w. For the same molecule, the PXRD [34] was “No change”, the Purity [34] was 99.61% and the Water content [34] was 0.12 % w/w. For the same molecule, the PXRD [35] was “No change”, the Purity [35] was 99.62% and the Water content [35] was 0.07 % w/w. The PXRD [36] was “Form RNM”, the Purity [36] was 99.57% and the Water content [36] was 0.12 % w/w. For the same molecule, the storage stability was “stable”.
